Assay results: patent US4016167A, “N-Substituted-6,8-dioxamorphinans” (Bristol-Myers Company, priority 1975, dated 1977)
Counter-ions that a name gives are not always drawn.

What was measured:
[1] = system: Straub Tail induced by oxymorphone; assay: Antagonism of Straub Tail induced by oxymorphone in mice (antagonist activity); format: in vivo, mouse; settings: antagonism of Straub Tail induced by oxymorphone (2 mg./kg. s.c.) in 50 percent of mice, reported as free base; for ED50: Mus musculus, sc; for ED50 Antagonist Activity, Oxymorphone Straub Tail: s.c., tartrate
Method: ^2 Antagonism of Straub Tail induced by oxymorphone (2 mg./kg. s.c.) in 50 percent of mice.

[2] = system: phenylquinone induced writhings; assay: Phenylquinone writhing, mouse s.c. (agonist activity); format: in vivo; settings: 50 percent reduction in number of phenylquinone induced writhings, tested as salts, reported as free base; for ED50: Mus musculus, sc; for ED50 Agonist Activity, Phenylquinone Writhing: tartrate
Excerpt: ^1 A 50 percent reduction in number of phenylquinone induced writhings (Siegmund, E.A. et al., Proc. Soc. Biol. & Med. 95, 729; 1957).

[3] = system: analgesic effect induced by morphine; assay: Morphine antagonism, rat tail flick (antagonist activity); settings: sc, read-out: ED50 Antagonist Activity, Morphine Antagonism Rat Tail Flick
[4] = system: agonist or antagonist activity in mice and rats; assay: Agonist and/or antagonist activity in mice and rats, overall assessment of the testing results; format: in vivo; settings: conclusion from Table I
[5] = prior art; cited from earlier work

Structure (SMILES)	ED50 [1]	ED50 [2]	ED50 [3]	agonist or antagonist activity (in words) [4]	ED50 Antagonist Activity, Oxymorphone Straub Tail [1]	ED50 Agonist Activity, Phenylquinone Writhing [2]	agonist and antagonist properties [5]
Oc1ccc2c(c1)[C@]13CCN(CC4CC4)[C@H](C2)[C@@H]1OCOC3 [XVa, 17-Cyclopropylmethyl-3-hydroxy-6,8-dioxamorphinan]	0.3 mg/kg	0.02 mg/kg	0.12 mg/kg	Outstanding	–	–	–
COc1ccc2c(c1)[C@]13CCN(CC4CC4)[C@H](C2)[C@]1(C)OCOC3 [XIVc, 17-Cyclopropylmethyl-3-methoxy-14β-methyl-6,8-dioxamorphinan]	> 40 mg/kg	~5 mg/kg	–	–	–	–	–
COc1ccc2c(c1)[C@]13CCN[C@H](C2)[C@@H]1OCOC3.O=C(O)/C=C/C(=O)O [XIIa, 3-Methoxy-6,8-dioxamorphinan hydrogen fumarate]	> 20 mg/kg	7.4 mg/kg	–	–	–	–	–
COc1ccc2c(c1)[C@]13CCN(CC4CC4)[C@H](C2)[C@@H]1OC(C)(C)OC3.O=C(O)C(O)C(O)C(=O)O (single isomer, unassigned) [(+)-XIVd, (+)-17-Cyclopropylmethyl-7,7-dimethyl-3-methoxy-6,8-dioxamorphinan-(-)-hydrogen tartrate]	–	–	–	–	> 40 mg/kg	> 40 mg/kg	–
COc1ccc2c(c1)[C@]13CCN(CC4CCC4)[C@H](C2)[C@@H]1OCOC3 [XIVb, 17-Cyclobutylmethyl-3-methoxy-6,8-dioxamorphinan]	> 40 mg/kg	2 mg/kg	–	–	–	–	–
CN1CC[C@]23COC(C)(C)O[C@H]2[C@H]1Cc1ccc(O)cc13 [Xd, 3-Hydroxy-7,7,17-trimethyl-6,8-dioxamorphinan]	> 40 mg/kg	0.08 mg/kg	–	–	–	–	–
COc1ccc2c(c1)[C@]13CCN(C)[C@H](C2)[C@@H]1OCOC3 [IXa, 3-Methoxy-17-methyl-6,8-dioxamorphinan]	> 20 mg/kg	~5 mg/kg	–	–	–	–	–
CC1(C)OCC23CCN(CC4CC4)C(Cc4ccc(O)cc42)C3O1 (single isomer, unassigned) [(+)-XVd, (+)-17,Cyclopropylmethyl-7,7-dimethyl-3-hydroxy-6,8-dioxamorphinan (-) tartrate]	> 40 mg/kg	> 10 mg/kg	–	–	–	–	–
CN1CC[C@]23COCO[C@H]2[C@H]1Cc1ccc(O)cc13.O=C(O)/C=C/C(=O)O [Xa, 3-Hydroxy-17-methyl-6,8-dioxamorphinan fumarate]	> 40 mg/kg	0.3 mg/kg	–	–	–	–	–
COc1ccc2c(c1)[C@]13CCN(C)[C@H](C2)[C@@H]1OC(C)(C)OC3 [IXd, 3-Methoxy-7,7,17-trimethyl-6,8-dioxamorphinan]	> 40 mg/kg	0.63 mg/kg	–	–	–	–	–
CC1(C)OC[C@]23CCN(CC4CC4)[C@H](Cc4ccc(O)cc42)[C@@H]3O1.O=C(O)C(O)C(O)C(=O)O (single isomer, unassigned) [(-)-XVd, (- )-17-Cyclopropylmethyl-7,7-dimethyl-3-hydroxy-6,8-dioxamorphinan (+ ) tartrate]	0.09 mg/kg	0.005 mg/kg	0.032 mg/kg	Outstanding	–	–	–
CC1(C)OC[C@]23CCN(CC4CCC4)[C@H](Cc4ccc(O)cc42)[C@@H]3O1.O=C(O)/C=C/C(=O)O [XVe, 17-Cyclobutylmethyl-7,7-dimethyl-3-hydroxy-6,8-dioxamorphinan hydrogen fumarate]	~15 mg/kg	0.04 mg/kg	–	Outstanding	–	–	–
COc1ccc2c(c1)[C@]13CCN(CC4CC4)[C@H](C2)[C@@H]1OCOC3.O=C(O)/C=C/C(=O)O [XIVa, 17-Cyclopropylmethyl-3-methoxy-6,8-dioxamorphinan hydrogen fumarate]	~15 mg/kg	0.3 mg/kg	–	Outstanding	–	–	–
COc1ccc2c(c1)[C@]13CCN(CC4CC4)[C@H](C2)[C@@H]1OC(C)(C)OC3.O=C(O)C(O)C(O)C(=O)O (single isomer, unassigned) [(-)-XIVd, (- )-17-Cyclopropylmethyl-7,7-dimethyl-3-methoxy-6,8-dioxamorphinan-(+ )-hydrogen tartrate]	–	–	1.19 mg/kg	Outstanding	5 mg/kg	0.066 mg/kg	–
CC1(C)OC[C@]23CCN(CC4CC4)[C@H](Cc4ccc(O)cc42)[C@@H]3O1.O=C(O)/C=C/C(=O)O [XVd, 17-Cyclopropylmethyl-7,7-dimethyl-3-hydroxy-6,8-dioxamorphinan hydrogen fumarate]	0.16 mg/kg	0.009 mg/kg	0.096 mg/kg	Outstanding	–	–	–
COc1ccc2c(c1)[C@]13CCN(CC4CCC4)[C@H](C2)[C@@H]1OC(C)(C)OC3.O=C(O)/C=C/C(=O)O [XIVe, 17-Cyclobutylmethyl-7,7-dimethyl-3-methoxy-6,8-dioxamorphinan hydrogen fumarate]	> 40 mg/kg	6.1 mg/kg	–	–	–	–	–
COc1ccc2c(c1)[C@]13CCN(CC4CC4)[C@H](C2)[C@@H]1OC(C)(C)OC3.O=C(O)/C=C/C(=O)O [XIVd, 17-Cyclopropylmethyl-7,7-dimethyl-3-methoxy-6,8-dioxamorphinan hydrogen fumarate]	~30 mg/kg	0.29 mg/kg	–	Outstanding	–	–	–
C[C@H]1[C@H]2Cc3ccc(O)cc3[C@]1(C)CCN2CC1CC1 [cyclazocine]	–	–	–	–	–	–	both properties
O=C(O)/C=C/C(=O)O.Oc1ccc2c(c1)[C@]13CCN(CC4CCC4)[C@H](C2)[C@@H]1OCOC3 [XVb, 17-Cyclobutylmethyl-3-hydroxy-6,8-dioxamorphinan fumarate]	~15 mg/kg	0.14 mg/kg	~9 mg/kg	Outstanding	–	–	–
COc1ccc2c(c1)[C@]13CCN(C)[C@H](C2)[C@]1(C)OCOC3 [IXc, 14β,17-Dimethyl-3-methoxy-6,8-dioxamorphinan]	> 40 mg/kg	0.31 mg/kg	–	–	–	–	–
C[C@@]12OCOC[C@@]13CCN(CC1CC1)[C@@H]2Cc1ccc(O)cc13.O=C(O)/C=C/C(=O)O [XVc, 17-Cyclopropylmethyl-3-hydroxy-14β-methyl-6,8-dioxamorphinan hydrogen fumarate]	0.63 mg/kg	0.064 mg/kg	0.1 mg/kg	Outstanding	–	–	–
COc1ccc2c(c1)[C@]13CCN[C@H](C2)[C@]1(C)OCOC3.O=C(O)/C=C/C(=O)O [XIIc, 3-Methoxy-14β-methyl-6,8-dioxamorphinan hydrogen fumarate]	~30 mg/kg	2 mg/kg	–	–	–	–	–
CN1CC[C@]23COCO[C@@]2(C)[C@H]1Cc1ccc(O)cc13.O=C(O)/C=C/C(=O)O [Xc, 14β,17-Dimethyl-3-hydroxy-6,8-dioxamorphinan fumarate]	~40 mg/kg	0.04 mg/kg	–	–	–	–	–
